Where “and” joins values, the source holds several entries; their conditions need not be identical. Identical values can stand only once. Marks after values point to notes of the source that are not given here.
Assays:
[1] = Example G: in vivo ecotoxicity screening test on fish (Danio rerio); details: Danio rerio, in vivo, other: exposure of embryos in water containing the compound
Description: with ECxi the Effect Concentration (EC) of each chemical i (in ppm) causing x % effect on the ecotoxicity test endpoint.
For each compound combination, the predicted ECx value is calculated. It is then compared to an experimentally measured value. The ratio of predicted versus measured effect for the combination (thereafter called the Model Deviation Ratio or MDR) is then calculated.
The environmental effect of the compound combinations was measured experimentally in laboratory ecotoxicity screening studies with fish (Danio rerio). […] Mortality was recorded after 48 h and 96 h for each tested concentration and a reference control. […] Then, the MDR values were calculated.
This concentrate is then diluted with water to the desired a.i. concentration, leading to a maximal solvent concentration of 0.5%. by weight The compounds alone and the combinations were tested for five increasing concentrations comprised between 0.01 and 1000 ppm (mg/1) a.i., (e.g. 0.1, 1.0, 10 and 100 ppm a.i). For the combinations, compounds A and B were mixed in a weight ratio of 5:1 to 1:5 and five increasing concentrations were tested for each ratio.

[2] = tested on: Sphaerotheca fuliginea; assay: Example D: in vivo preventive test on Sphaerotheca test (cucumbers); details: compound alone
[3] = tested on: causal agent of soybean rust (Phakopsora pachyrhizi); assay: Example C: in vivo preventive test on Phakopsora test (soybeans); details: compound alone
[4] = tested on: causal agent of apple scab (Venturia inaequalis); assay: Example E: in vivo preventive test on Venturia test (apples); details: compound alone
[5] = tested on: Pyrenophora oryzae; assay: Example F: in vitro-Test with Pyrenophora oryzae; assay type: cell-based; details: compound alone
[6] = tested on: Alternaria solani; assay: Example A: in vivo preventive test on Alternaria test (tomatoes); details: compound alone, evaluated 3 days after inoculation
Description: (§1) The test is evaluated 3 days after the inoculation.

[7] = tested on: Colletotrichum coccodes; assay: Example B: in vivo preventive test on Colletotrichum test (tomatoes); details: compound alone
Description: as §1

[8] = tested on: Septoria tritici; assay: Example F: in vitro-Test with Septoria tritici; assay type: cell-based; details: compound alone
[9] = Measurement of Log P values by HPLC on reversed phase columns (EEC directive 79/831 Annex V.A8); assay type: physicochemical
Description: Measurement of Log P values was performed according to EEC directive 79/831 Annex V.A8 by HPLC (High Performance Liquid Chromatography) on reversed phase columns with the following methods:

Compound: CC(C)(C)[C@@H](O)[C@@H](Cc1ccc(Cl)cc1)n1cncn1 (racemic) [Example 1.015, paclobutrazol]
- LC50 at 48 h [1]: 99.8 µg/mL
- LC50 at 96 h [1]: 56.5 µg/mL

Compound: CC(C)C1CCC(Cc2ccc(Cl)cc2)C1(O)Cn1cncn1 (stereo not drawn) [1.012 ipconazole]
- Efficacy in % found ([2]; 2.5 ppm a.i.): 0%
- Efficacy in % found ([2]; 5 ppm a.i.): 0%
- Efficacy in % found ([2]; 10 ppm a.i.): 0%

Compound: O=C(NCCc1ncc(C(F)(F)F)cc1Cl)c1ccccc1C(F)(F)F [2.005 fluopyram]
- Efficacy in % found ([3]; 5 ppm a.i.): 0%
- Efficacy in % found ([3]; 10 ppm a.i.): 0%
- Efficacy in % found ([3]; 20 ppm a.i.): 0%

Compound: Cc1nn(C)c(F)c1C(=O)Nc1ccccc1C(C)CC(C)C (stereo not drawn) [2.017 penflufen]
- Efficacy in % found ([3]; 5 ppm a.i.): 0%
- Efficacy in % found ([3]; 10 ppm a.i.): 8%
- Efficacy in % found ([3]; 20 ppm a.i.): 60%
- Efficacy in % found ([4]; 5 ppm a.i.): 18%
- Efficacy in % found ([4]; 10 ppm a.i.): 26%
- Efficacy in % found ([4]; 20 ppm a.i.): 23%

Compound: CON=C(C(=O)OC)c1ccccc1CON=C(C)c1cccc(C(F)(F)F)c1 [3.020 trifloxystrobin]
- Efficacy % ([5]; 0.04 ppm): 0%
- Efficacy % ([5]; 0.2 ppm): 0%
- Efficacy % ([5]; 1 ppm): 0%

Compound: N#Cc1c(Cl)c(Cl)c(Cl)c(C#N)c1Cl [5.004 chlorothalonil, chlorothalonil]
- Efficacy in % found ([6]; 12.5 ppm a.i.): 0%
- Efficacy in % found ([6]; 25 ppm a.i.): 0%
- Efficacy in % found ([6]; 50 ppm a.i.): 15%
- Efficacy in % found ([3]; 12.5 ppm a.i.): 0%
- Efficacy in % found ([3]; 25 ppm a.i.): 0%
- Efficacy in % found ([3]; 50 ppm a.i.): 30%
- Efficacy in % found ([7]; 12.5 ppm a.i.): 0%
- Efficacy in % found ([7]; 25 ppm a.i.): 0%
- Efficacy in % found ([7]; 50 ppm a.i.): 0%

Compound: CCCOc1nc2ccc(I)cc2c(=O)n1CCC [13.004 proquinazid]
- Efficacy % ([8]; 4 ppm): 0%
- Efficacy % ([8]; 20 ppm): 37% and 40%
- Efficacy in % found ([2]; 25 ppm a.i.): 90%
- Efficacy in % found ([2]; 50 ppm a.i.): 100%
- Efficacy in % found ([2]; 100 ppm a.i.): 100%

Compound: O=C(Cc1ccccc1)N/C(=N\OCC1CC1)c1c(C(F)(F)F)ccc(F)c1F [15.008 cyflufenamid]
- Efficacy in % found ([4]; 1 ppm a.i.): 0%
- Efficacy in % found ([4]; 2 ppm a.i.): 0%
- Efficacy in % found ([4]; 4 ppm a.i.): 8%

Compound: CON=C(C(=O)OC)c1ccccc1CON=C(C)c1cccc(C(F)(F)F)c1 [15.047 trifloxystrobin]
- Efficacy % ([5]; 0.04 ppm): 17%
- Efficacy % ([5]; 0.2 ppm): 86%

Compound: CC(C)C1CCC(Cc2ccc(Cl)cc2)C1(O)Cn1cncn1 (stereo not drawn) [Example 1.012, ipconazole]
- LC50 at 48 h [1]: 13.8 µg/mL
- LC50 at 96 h [1]: 6.57 µg/mL

Compound: OC(Cc1ccccc1Cl)(Cn1nc[nH]c1=S)C1(Cl)CC1 (stereo not drawn) [Example 1.018, prothioconazole]
- LC50 at 48 h [1]: 9.49 µg/mL
- LC50 at 96 h [1]: 3.16 µg/mL

Compound: CC(C)(C)C(O)(CCc1ccc(Cl)cc1)Cn1cncn1 (stereo not drawn) [Example 1.021, tebuconazole]
- LC50 at 48 h [1]: 19.7 µg/mL
- LC50 at 96 h [1]: 19.7 µg/mL

Compound: CC1CC(C)(C)c2cccc(NC(=O)c3cn(C)nc3C(F)F)c21 (stereo not drawn) [Example 2.027, 3-(difluoromethyl)-1-methyl-N-(1,1,3-trimethyl-2,3-dihydro-1H-inden-4-yl)-1H-pyrazole-4-carboxamide, reference compound]
- Efficacy % ([5]; 0.8 ppm): 55%
- Efficacy % ([5]; 4 ppm): 81%
- LC50 at 48 h [1]: 1.85 µg/mL
- LC50 at 96 h [1]: 1.74 µg/mL
- Efficacy in % found ([3]; 1 ppm a.i.): 15%
- Efficacy in % found ([3]; 2 ppm a.i.): 85%
- Efficacy in % found ([3]; 4 ppm a.i.): 96%
- Efficacy in % found ([4]; 1 ppm a.i.): 8%
- Efficacy in % found ([4]; 2 ppm a.i.): 8%
- Efficacy in % found ([4]; 4 ppm a.i.): 74%

Compound: CC(C)c1ccc(Cl)cc1CN(C(=O)c1c(C(F)F)nn(C)c1F)C1CC1 [Example 2.038, N-(5-chloro-2-isopropylbenzyl)-N-cyclopropyl-3-(difluoromethyl)-5-fluoro-1-methyl-1H-pyrazole-4-carboxamide]
- LC50 at 48 h [1]: 0.51 µg/mL
- LC50 at 96 h [1]: 0.35 µg/mL
- Efficacy in % found ([3]; 1 ppm a.i.): 0%
- Efficacy in % found ([3]; 2 ppm a.i.): 0%
- Efficacy in % found ([3]; 4 ppm a.i.): 0%

Compound: CON=C(C(=O)OC)c1ccccc1CON=C(C)c1cccc(C(F)(F)F)c1 [Example 3.020, trifloxystrobin]
- LC50 at 48 h [1]: 0.4 µg/mL
- LC50 at 96 h [1]: 0.24 µg/mL

Compound: COc1ccnc(C(=O)N[C@H]2COC(=O)[C@H](Cc3ccccc3)[C@@H](OC(=O)C(C)C)[C@H](C)OC2=O)c1OCOC(=O)C(C)C [Example 3.025, (3S,6S,7R,8R)-8-benzyl-3-[({3-[(isobutyryloxy)methoxy]-4-methoxypyridin-2-yl}carbonyl)amino]-6-methyl-4,9-dioxo-1,5-dioxonan-7-yl 2-methylpropanoate]
- Efficacy % ([5]; 4 ppm): 0%
- Efficacy % ([5]; 20 ppm): 0%
- LC50 at 48 h [1]: 2.31 µg/mL
- LC50 at 96 h [1]: 1.87 µg/mL
- Efficacy in % found ([3]; 5 ppm a.i.): 0%
- Efficacy in % found ([3]; 10 ppm a.i.): 30%
- Efficacy in % found ([3]; 20 ppm a.i.): 35%

Compound: O=C(Nc1ccccc1)N(Cc1ccc(Cl)cc1)C1CCCC1 [Example 4.005, pencycuron]
- LC50 at 48 h [1]: > 200 µg/mL
- LC50 at 96 h [1]: > 200 µg/mL

Compound: N#Cc1c[nH]cc1-c1cccc2c1OC(F)(F)O2 [Example 13.001, fludioxonil]
- LC50 at 48 h [1]: 0.91 µg/mL
- LC50 at 96 h [1]: 0.89 µg/mL

Compound: O=C(Cc1ccccc1)N/C(=N\OCC1CC1)c1c(C(F)(F)F)ccc(F)c1F [Example 15.008, cyflufenamid]
- LC50 at 48 h [1]: 9.71 µg/mL
- LC50 at 96 h [1]: 5.2 µg/mL

Compound: CCOC(=O)c1cncn1CC(O)(Cc1ccccc1F)C1(Cl)CC1 (stereo not drawn) [Example I-135]
- LogP [9]: 2.73^[a]

Compound: N#Cc1cncn1CC(O)(Cc1ccccc1F)C1CCC1 (stereo not drawn) [Example I-137]
- LogP [9]: 2.46^[a]

Compound: CC(C)(C)C(O)(Cc1ccccc1F)Cn1cncc1C#N (stereo not drawn) [Example I-138]
- LogP [9]: 2.73^[a]

Compound: CC(C)C(O)(Cc1ccccc1F)Cn1cncc1C#N (stereo not drawn) [Example I-139]
- LogP [9]: 2.40^[a]

Compound: Cc1cccc(CC(O)(Cn2cncc2Cl)C2(Cl)CC2)c1F (stereo not drawn) [Example I-143]
- LogP [9]: 2.35^[a]

Compound: OC(Cc1cccc(F)c1F)(Cn1cncc1Cl)C1(Cl)CC1 (stereo not drawn) [Example I-147]
- LogP [9]: 2.17^[a]

Compound: N#Cc1cncn1CC(O)(Cc1cccc(F)c1F)C1CCC1 (stereo not drawn) [Example I-148]
- LogP [9]: 2.57^[a]

Compound: CC(C)C(O)(Cc1cccc(F)c1F)Cn1cncc1C#N (stereo not drawn) [Example I-149]
- LogP [9]: 2.47^[a]

Compound: N#Cc1cncn1CC(O)(Cc1ccnc(Cl)c1F)C1(Cl)CC1 (stereo not drawn) [Example I-152]
- LogP [9]: 2.25^[a]

Compound: N#Cc1cncn1CC(O)(Cc1ccc(F)cc1Cl)C1(Cl)CC1 (stereo not drawn) [Example I-154]
- LogP [9]: 3.00^[a]

Compound: Cc1cc(F)ccc1CC(O)(Cn1cncc1Cl)C1(Cl)CC1 (stereo not drawn) [Example I-155]
- LogP [9]: 2.46^[a]

Compound: N#Cc1cncn1CC(O)(Cc1cc(F)cc(F)c1)C1(Cl)CC1 (stereo not drawn) [Example I-156]
- LogP [9]: 2.86^[a]

Compound: N#Cc1cncn1CC(O)(Cc1ccc(F)cc1)C1(Cl)CC1 (stereo not drawn) [Example I-157]
- LogP [9]: 2.75^[a]

Compound: OC(Cc1ccc(F)cc1)(Cn1cncc1Cl)C1(Cl)CC1 (stereo not drawn) [Example I-158]
- LogP [9]: 2.13^[a]

Compound: N#Cc1cncn1CC(O)(Cc1ccc(F)cc1)C1(Cl)CCC1 (stereo not drawn) [Example I-159]
- LogP [9]: 2.98^[a]

Compound: N#Cc1cncn1CC(O)(Cc1ccc(F)cc1)C1CCC1 (stereo not drawn) [Example I-160]
- LogP [9]: 2.56^[a]

Compound: N#Cc1cncn1CC(O)(Cc1ccc(F)cc1)C1CCCC1 (stereo not drawn) [Example I-161]
- LogP [9]: 2.82^[a]

Compound: CC(C)C(O)(Cc1ccc(F)cc1)Cn1cncc1C#N (stereo not drawn) [Example I-162]
- LogP [9]: 2.44^[a]

Compound: N#Cc1cncn1CC(O)(Cc1ccncc1F)C1(Cl)CC1 (stereo not drawn) [Example I-163]
- LogP [9]: 1.62^[a]

Compound: OC(Cc1ccncc1F)(Cn1cncc1Cl)C1(Cl)CC1 (stereo not drawn) [Example I-164]
- LogP [9]: 1.46^[a]

Compound: N#Cc1cncn1CC(O)(Cc1cc(F)ncc1Cl)C1(Cl)CC1 (stereo not drawn) [Example I-165]
- LogP [9]: 2.38^[a]

Compound: N#Cc1cncn1CC(O)(Cc1ccccc1I)C1(Cl)CC1 (stereo not drawn) [Example I-166]
- LogP [9]: 3.13^[a]

Compound: N#Cc1cncn1CC(O)(Cc1ccnnc1Cl)C1(Cl)CC1 (stereo not drawn) [Example I-168]
- LogP [9]: 1.59^[a]

Compound: O=C(Cc1ccccc1)c1cncn1CC(O)(Cc1ccccc1)C1(Cl)CC1 (stereo not drawn) [Example I-169]
- LogP [9]: 3.56^[a]

Compound: propineb [5.018 propineb]
- Efficacy in % found ([6]; 12.5 ppm a.i.): 0%
- Efficacy in % found ([6]; 25 ppm a.i.): 8%
- Efficacy in % found ([6]; 50 ppm a.i.): 50%
- Efficacy in % found ([3]; 12.5 ppm a.i.): 0%
- Efficacy in % found ([3]; 25 ppm a.i.): 0%
- Efficacy in % found ([3]; 50 ppm a.i.): 40%

— patent US20190223437A1, “ACTIVE COMPOUND COMBINATIONS COMPRISING A 5-SUBSTITUTED IMIDAZOLE DERIVATIVE” (BAYER CROPSCIENCE AKTIENGESELLSCHAFT, priority 2016, published 2019)
